Measurements as given in PubChem BioAssay (NCI).
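Abbreviation: GI50, concentration required for 50% inhibition of growth. At the TGI there is no net growth.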

How the values were obtained:
Experiment in all cases: inhibition of tumour cell growth, NCI panel, 384-well format
BT-549 breast = tested on: BT-549 breast
EKVX NSCLC = tested on: EKVX NSCLC
HOP-92 NSCLC = tested on: HOP-92 NSCLC
MDA-MB-231 breast = tested on: MDA-MB-231 breast
MDA-MB-435 melanoma = tested on: MDA-MB-435 melanoma
MDA-MB-468 breast = tested on: MDA-MB-468 breast
NCI-H23 lung = tested on: NCI-H23 lung
NCI/ADR-RES ovarian = tested on: NCI/ADR-RES ovarian
OVCAR-4 ovarian = tested on: OVCAR-4 ovarian
SF-539 CNS = tested on: SF-539 CNS
SK-MEL-5 melanoma = tested on: SK-MEL-5 melanoma
SK-OV-3 ovarian = tested on: SK-OV-3 ovarian
SW-620 colon = tested on: SW-620 colon

Row | SMILES | GI50 (BT-549 breast) [nM] | TGI (BT-549 breast) [nM] | GI50 (EKVX NSCLC) [nM] | TGI (EKVX NSCLC) [nM] | GI50 (HOP-92 NSCLC) [nM] | TGI (HOP-92 NSCLC) [nM] | GI50 (MDA-MB-231 breast) [nM] | TGI (MDA-MB-231 breast) [nM] | GI50 (MDA-MB-435 melanoma) [nM] | TGI (MDA-MB-435 melanoma) [nM] | GI50 (MDA-MB-468 breast) [nM] | TGI (MDA-MB-468 breast) [nM] | GI50 (NCI-H23 lung) [nM] | TGI (NCI-H23 lung) [nM] | GI50 (NCI/ADR-RES ovarian) [nM] | TGI (NCI/ADR-RES ovarian) [nM] | GI50 (OVCAR-4 ovarian) [nM] | TGI (OVCAR-4 ovarian) [nM] | GI50 (SF-539 CNS) [nM] | TGI (SF-539 CNS) [nM] | other results
1 | O=C(O)c1ccc(CN2CCC(CN[C@@H]3C[C@H]3c3ccccc3)CC2)cc1 | > 100000 | > 100000 | > 100000 | > 100000 | > 100000 | > 100000 | > 100000 | > 100000 | > 100000 | > 100000 | > 100000 | > 100000 | > 100000 | > 100000 | > 100000 | > 100000 | > 100000 | > 100000 | > 100000 | > 100000 | GI50 (SK-MEL-5 melanoma): > 100000 nM; TGI (SK-MEL-5 melanoma): > 100000 nM; GI50 (SK-OV-3 ovarian): > 100000 nM; TGI (SK-OV-3 ovarian): > 100000 nM; GI50 (SW-620 colon): > 100000 nM; TGI (SW-620 colon): > 100000 nM
2 | Cc1cc2c(cc1C)NC1=C(N2)OC(c2c3ccccc3cc3ccccc23)C1=O (configuration not stated) | 270 | 581 | 431 | 6440 | 398 | 1490 | 554 | 2810 | 217 | 425 | 218 | 436 | 288 | 763 | 194 | 355 | 377 | 1970 | 170 | 380 | GI50 (SK-MEL-5 melanoma): 603 nM; TGI (SK-MEL-5 melanoma): 1150 nM; GI50 (SK-OV-3 ovarian): 253 nM; TGI (SK-OV-3 ovarian): 732 nM; GI50 (SW-620 colon): 454 nM; TGI (SW-620 colon): 7470 nM
